Counter-ions that a name gives are not always drawn.

The test addresses human complement factor B (CVF-Bb complex) (Homo sapiens (Human), UniProt P00751). In words: Human Complement Factor B ELISA Assay. The class given is biochemical. Conditions: CVF-Bb complex 3 nM, 1 hour preincubation with compound at room temperature, human C3 substrate 1 μM, C3a quantified by ELISA; read-out: Factor B IC50. As for the experimental part: Human Complement Factor B ELISA Assay
CVF-Bb complex prepared from purified cobra venom factor (1 μM), recombinant human complement factor B (expressed in drosophila cells and purified using standard methods) and human complement factor D (expressed in E. Coli, refolded and purified using standard methods). CVF-Bb complex at 3 nM concentration was incubated with test compound at various concentrations for 1 hour at room temperature in PBS pH 7.4 containing 10 mM MgCl2 and 0.05% (w/v) CHAPS. Human complement C3 substrate purified from plasma was added to a final concentration of 1 μM. After 1 hour incubation at room temperature, the enzyme reaction was stopped by addition of a cocktail of concentrated pan-protease inhibitors. The product of the reaction, C3a, was quantified by means of an enzyme-linked-immunosorbent assay. IC50 values were calculated from percentage of inhibition of CVF-Bb activity as a function of test compound concentration.
Background: In an ELISA, binding on a coated surface is turned into a signal by an enzyme label.

On to `COc1cc2c(N)nc(N3CCN(C(=O)/C=C/C4CC4)CC3)nc2c(F)c1OC` [Example 1, (E)-1-[4-(4-Amino-8-fluoro-6,7-dimethoxy-quinazolin-2-yl)-piperazin-1-yl]-3-cyclopropyl-propenone hydrochloride], for which the IC50 was 500 nM. Turning to `COc1cc2c(N)nc(N3CCN(C(=O)/C=C/c4ccc(C#N)cc4)CC3)nc2c(F)c1OC` [Example 2, 4-{(E)-3-[4-(4-Amino-8-fluoro-6,7-dimethoxy-quinazolin-2-yl)-piperazin-1-yl]-3-oxo-propenyl}-benzonitrile], the IC50 is 16 nM.

As for `COC[C@H]1CN(C(=O)/C=C/C2CC2)CCN1c1nc(N)c2cc(OC)c(OC)c(F)c2n1` [Example 3], the IC50 came out at 2060 nM. For `COCCC1CN(C(=O)/C=C/C2CC2)CCN1c1nc(N)c2cc(OC)c(OC)c(F)c2n1` (stereo not drawn) [Example 4, (E)-1-[4-(4-Amino-8-fluoro-6,7-dimethoxy-quinazolin-2-yl)-3-(2-methoxy-ethyl)-piperazin-1-yl]-3-cyclopropyl-propenone] the value was 16500 nM; for `COc1cc2c(N)nc(N3CCN(C(=O)/C=C/C4CC4)CC3)nc2c(C#N)c1OC` [Example 5, 4-Amino-2-[4-((E)-3-cyclopropyl-acryloyl)-piperazin-1-yl]-6,7-dimethoxy-quinazoline-8-carbonitrile], 440 nM. For `COc1cc2c(N)nc(N3CCN(C(=O)/C=C/C4CCC4)C[C@@H]3C)nc2c(F)c1OC` [Example 6, (E)-1-[(S)-4-(4-Amino-8-fluoro-6,7-dimethoxy-quinazolin-2-yl)-3-methyl-piperazin-1-yl]-3-cyclobutyl-propenone] the value was 190 nM; for `COc1cc2c(N)nc(N3CCN(C(=O)/C=C/c4ccc(C#N)cc4)C[C@@H]3C)nc2c(F)c1OC` [Example 7, 4-{(E)-3-[(S)-4-(4-Amino-8-fluoro-6,7-dimethoxy-quinazolin-2-yl)-3-methyl-piperazin-1-yl]-3-oxo-propenyl}-benzonitrile], 20 nM.

Consider `CC[C@H]1CN(C(=O)/C=C/c2ccc(C#N)cc2)CCN1c1nc(N)c2cc(OC)c(OC)c(F)c2n1` [Example 8, 4-{(E)-3-[(S)-4-(4-Amino-8-fluoro-6,7-dimethoxy-quinazolin-2-yl)-3-ethyl-piperazin-1-yl]-3-oxo-propenyl}-benzonitrile], for which the IC50 amounted to 11 nM. On to `CCC[C@H]1CN(C(=O)/C=C/c2ccc(C#N)cc2)CCN1c1nc(N)c2cc(OC)c(OC)c(F)c2n1` [Example 9, 4-{(E)-3-[(S)-4-(4-Amino-8-fluoro-6,7-dimethoxy-quinazolin-2-yl)-3-propyl-piperazin-1-yl]-3-oxo-propenyl}-benzonitrile], for which the IC50 turned out to be 20 nM. The same measure for `COc1cc2c(N)nc(N3CCN(C(=O)/C=C/c4ccc(C#N)cc4)C[C@@H]3c3ccccc3)nc2c(F)c1OC` [Example 10, 4-{(E)-3-[(S)-4-(4-Amino-8-fluoro-6,7-dimethoxy-quinazolin-2-yl)-3-phenyl-piperazin-1-yl]-3-oxo-propenyl}-benzonitrile]: 6 nM; for `COCCOc1c(OC)cc2c(N)nc(N3CCN(C(=O)/C=C/c4ccc(C#N)cc4)CC3)nc2c1F` [Example 11, 4-((E)-3-{4-[4-Amino-8-fluoro-6-methoxy-7-(2-methoxy-ethoxy)-quinazolin-2-yl]-piperazin-1-yl}-3-oxo-propenyl)-benzonitrile]: 230 nM.

`COc1cc2nc(N3CCN(C(=O)/C=C/C4CC4)CC3)nc(N)c2c(F)c1OC` [Example 12, (E)-1-[4-(4-Amino-5-fluoro-6,7-dimethoxy-quinazolin-2-yl)-piperazin-1-yl]-3-cyclopropyl-propenone]: the concentration for half-maximal inhibition (IC50) came out at 140 nM.

Consider `COc1cc2c(N)nc(N3CCN(C(=O)/C=C/C4CC4)CC3)nc2c(Cl)c1OC` [Example 13, (E)-1-(4-(4-Amino-8-chloro-6,7-dimethoxyquinazolin-2-yl)piperazin-1-yl)-3-cyclopropylprop-2-en-1-one], for which the IC50 is 1050 nM. Regarding `COc1cc2nc(N3CCN(C(=O)/C=C/C4CC4)CC3)nc(N)c2c(Cl)c1OC` [Example 14, (E)-1-(4-(4-Amino-5-chloro-6,7-dimethoxyquinazolin-2-yl)piperazin-1-yl)-3-cyclopropylprop-2-en-1-one], the IC50 is 3290 nM. The same measure for `COc1cc2c(N)nc(N3CCN(C(=O)/C=C/C4CC4)CC3)nc2c(Br)c1OC` [Example 15, (E)-1-(4-(4-Amino-8-bromo-6,7-dimethoxyquinazolin-2-yl)piperazin-1-yl)-3-cyclopropylprop-2-en-1-one]: 1280 nM; for `COc1cc2c(N)nc(N3CCN(C(=O)/C=C/c4ccc(F)cc4)CC3)nc2c(Cl)c1OC` [Example 16, (E)-1-(4-(4-Amino-8-chloro-6,7-dimethoxyquinazolin-2-yl)piperazin-1-yl)-3-(4-fluorophenyl)prop-2-en-1-one]: 1440 nM. The same measure for `COc1cc2c(N)nc(N3CCN(C(=O)c4cc5ccccc5[nH]4)CC3)nc2c(F)c1OC` [Example 17, [4-(4-Amino-8-fluoro-6,7-dimethoxy-quinazolin-2-yl)-piperazin-1-yl]-(1H-indol-2-yl)-methanone]: 340 nM; for `COc1cc2c(N)nc(N3CCN(C(=O)c4cc5cc(C#N)ccc5[nH]4)CC3)nc2c(F)c1OC` [Example 18, 2-[4-(4-Amino-8-fluoro-6,7-dimethoxy-quinazolin-2-yl)-piperazine-1-carbonyl]-1H-indole-5-carbonitrile]: 20 nM; for `COc1cc2c(N)nc(N3CCN(C(=O)c4cc5cc(O)ccc5[nH]4)CC3)nc2c(F)c1OC` [Example 19, [4-(4-Amino-8-fluoro-6,7-dimethoxy-quinazolin-2-yl)-piperazin-1-yl]-(5-hydroxy-1H-indol-2-yl)-methanone]: 80 nM. For `COc1cc2c(N)nc(N3CCN(C(=O)c4cc5c(OC)cccc5[nH]4)CC3)nc2c(F)c1OC` [Example 20, [4-(4-Amino-8-fluoro-6,7-dimethoxy-quinazolin-2-yl)-piperazin-1-yl]-(4-methoxy-1H-indol-2-yl)-methanone] the value was 9630 nM; for `COc1cc2c(N)nc(N3CCN(C(=O)c4cc5cc(F)ccc5[nH]4)CC3)nc2c(F)c1OC` [Example 21, [4-(4-Amino-8-fluoro-6,7-dimethoxy-quinazolin-2-yl)-piperazin-1-yl]-(5-fluoro-1H-indol-2-yl)-methanone], 70 nM.

Consider `COc1cc2c(N)nc(N3CCN(C(=O)c4cc5cc(F)cc(F)c5[nH]4)CC3)nc2c(F)c1OC` [Example 22, [4-(4-Amino-8-fluoro-6,7-dimethoxy-quinazolin-2-yl)-piperazin-1-yl]-(5,7-difluoro-1H-indol-2-yl)-methanone], for which the IC50 was determined as 17 nM. The same measure for `COc1cc2c(N)nc(N3CCN(C(=O)c4cc5cc(C#N)ccc5[nH]4)C[C@@H]3C)nc2c(F)c1OC` [Example 23, 2-[(S)-4-(4-Amino-8-fluoro-6,7-dimethoxy-quinazolin-2-yl)-3-methyl-piperazine-1-carbonyl]-1H-indole-5-carbonitrile]: 15 nM; for `COc1cc2c(N)nc(N3CCN(C(=O)c4cc5cc(F)ccc5[nH]4)C[C@@H]3C)nc2c(F)c1OC` [Example 24, [(S)-4-(4-Amino-8-fluoro-6,7-dimethoxy-quinazolin-2-yl)-3-methyl-piperazin-1-yl]-(5-fluoro-1H-indol-2-yl)-methanone]: 90 nM; for `CC[C@H]1CN(C(=O)c2cc3cc(C#N)ccc3[nH]2)CCN1c1nc(N)c2cc(OC)c(OC)c(F)c2n1` [Example 25, 2-[(S)-4-(4-Amino-8-fluoro-6,7-dimethoxy-quinazolin-2-yl)-3-ethyl-piperazine-1-carbonyl]-1H-indole-5-carbonitrile]: 6 nM. The same measure for `CCC[C@H]1CN(C(=O)c2cc3cc(C#N)ccc3[nH]2)CCN1c1nc(N)c2cc(OC)c(OC)c(F)c2n1` [Example 26, 2-[(S)-4-(4-Amino-8-fluoro-6,7-dimethoxy-quinazolin-2-yl)-3-propyl-piperazine-1-carbonyl]-1H-indole-5-carbonitrile]: 11 nM. The same measure for `CCC[C@H]1CN(C(=O)c2cc3cc(F)ccc3[nH]2)CCN1c1nc(N)c2cc(OC)c(OC)c(F)c2n1` [Example 27, [(S)-4-(4-Amino-8-fluoro-6,7-dimethoxy-quinazolin-2-yl)-3-propyl-piperazin-1-yl]-(5-fluoro-1H-indol-2-yl)-methanone]: 280 nM. Take `COc1cc2c(N)nc(N3CCN(C(=O)c4cc5cc(C#N)ccc5[nH]4)C[C@@H]3c3ccccc3)nc2c(F)c1OC` [Example 28, 2-[(S)-4-(4-Amino-8-fluoro-6,7-dimethoxy-quinazolin-2-yl)-3-phenyl-piperazine-1-carbonyl]-1H-indole-5-carbonitrile]: the half-inhibitory concentration (IC50) turned out to be 5 nM. Regarding `COc1cc2c(N)nc(N3CCN(C(=O)c4cc5cc(F)ccc5[nH]4)C[C@@H]3c3ccccc3)nc2c(F)c1OC` [Example 29, (S)-(4-(4-amino-8-fluoro-6,7-dimethoxyquinazolin-2-yl)-3-phenylpiperazin-1-yl)(5-fluoro-1H-indol-2-yl)methanone], the IC50 worked out at 14 nM. The same measure for `COCCOc1c(OC)cc2c(N)nc(N3CCN(C(=O)c4cc5cc(Cl)ccc5[nH]4)C[C@@H]3C)nc2c1F` [Example 30, {(S)-4-[4-Amino-8-fluoro-6-methoxy-7-(2-methoxy-ethoxy)-quinazolin-2-yl]-3-methyl-piperazin-1-yl}-(5-chloro-1H-indol-2-yl)-methanone]: 70 nM.

By IC50 is commonly meant the concentration at which inhibition is half-maximal.
